Measured values taken from ChEMBL document CHEMBL1201862, “PubChem BioAssay data set” (2004).
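96-well plates; 48 h exposure; 5 concentrations. Endpoints by linear interpolation between flanking doses. Not reached: highest tested concentration assigned. At the GI50, growth is halved.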 Calls of active or inactive are those of the source. Cut-off read from the data, not from the text of the source: active = GI50 up to about 1.1 µM and inactive = higher.

Key:
Test in all cases: inhibition of tumour cell growth, NCI panel, 48 h
XF498 = tested on: XF498
SNB-78 = tested on: SNB-78
DMS-273 = tested on: DMS-273
M19-MEL = tested on: M19-MEL
KM-20L2 = tested on: KM-20L2
LXFL 529 = tested on: LXFL 529
RXF 631 = tested on: RXF 631
DMS-114 = tested on: DMS-114
DLD-1 = tested on: DLD-1

Structure (SMILES) | GI50 (XF498) | GI50 (SNB-78) | GI50 (DMS-273) | GI50 (M19-MEL) | GI50 (KM-20L2) | GI50 (LXFL 529) | GI50 (RXF 631) | GI50 (DMS-114) | GI50 (DLD-1)
O=C(N/C(=C\c1ccc(Br)cc1)c1nc2ccccc2s1)c1ccccc1 | > 100 µM (inactive) | > 100 µM (inactive) | 91.6 µM (inactive) | 70.3 µM (inactive) | > 100 µM (inactive) | 54.5 µM (inactive) | 87.3 µM (inactive) | 46.5 µM (inactive) | 46.9 µM (inactive)
C=C[C@@H](C)[C@]1(C(=O)OC)CCCC12OCCO2 | > 100 µM (inactive) |  | 39.3 µM (inactive) | > 100 µM (inactive) | > 100 µM (inactive) | > 100 µM (inactive) |  | > 100 µM (inactive) | > 100 µM (inactive)
NCCSCC(N)C(=O)O (stereo not drawn) | > 497 µM (inactive) | > 497 µM (inactive) | > 497 µM (inactive) | > 497 µM (inactive) | > 497 µM (inactive) | > 497 µM (inactive) |  | > 497 µM (inactive) | > 497 µM (inactive)
C=CCC1(C)CCCCC1(O)C[S+]([O-])c1ccccc1 (stereo not drawn) |  | > 100 µM (inactive) | > 100 µM (inactive) | > 100 µM (inactive) | > 100 µM (inactive) |  | > 100 µM (inactive) | > 100 µM (inactive) | > 100 µM (inactive)
CCC1(O)C(=O)OCc2c1cc1n(c2=O)Cc2cc3c(N)cccc3nc2-1 (stereo not drawn) [RS-9-Aminocamptothecin] | 0.145 µM (active) | 0.995 µM (active) | < 0.01 µM (active) | 0.0588 µM (active) | 0.132 µM (active) | 0.341 µM (active) | 0.0471 µM (active) | < 0.0104 µM (active) | 0.859 µM (active)
CCOc1ccc(NC(=O)CC2SC(Nc3ccc(Cl)cc3)=NC2=O)cc1 (stereo not drawn) | > 100 µM (inactive) |  | > 100 µM (inactive) | > 100 µM (inactive) | > 100 µM (inactive) | 41.8 µM (inactive) | > 100 µM (inactive) | > 100 µM (inactive) | 36 µM (inactive)
O=S(=O)(O)SC/C=C\CSS(=O)(=O)O | > 100 µM (inactive) | > 100 µM (inactive) | > 100 µM (inactive) | > 100 µM (inactive) | > 100 µM (inactive) | > 100 µM (inactive) | > 100 µM (inactive) | > 100 µM (inactive) | > 100 µM (inactive)
O=c1ccc2ccc(O)c3c4c(O)ccc5ccc(=O)c(c1c23)c54 | 1.79 µM (inactive) |  | 1.95 µM (inactive) | 0.69 µM (active) |  |  |  | 1.51 µM (inactive) | 1.64 µM (inactive)
O=C(NC1CCCCC1)NS(=O)(=O)c1ccc2c(c1)CCC2 [GLYHEXAMIDE] | > 100 µM (inactive) |  |  | > 100 µM (inactive) |  |  | > 100 µM (inactive) | > 100 µM (inactive) | > 100 µM (inactive)
O=c1/c(=C/c2ccc3c(c2)OCO3)sc2nnc(Cc3ccccc3)n12 |  | > 100 µM (inactive) | > 100 µM (inactive) | > 100 µM (inactive) | > 100 µM (inactive) | > 100 µM (inactive) |  | > 100 µM (inactive) | > 100 µM (inactive)
O=C(N/N=C1/C(=O)N(c2ccc(Cl)cc2Cl)C(=O)C(=O)C1c1nc2ccccc2o1)c1ccccc1O (stereo not drawn) | 20.4 µM (inactive) |  | > 10 µM (inactive) | 38.3 µM (inactive) | > 100 µM (inactive) | 37.6 µM (inactive) |  | 26.4 µM (inactive) | 33 µM (inactive)
CCCCCCCCCCCCC(SCCNC(=O)CCNC(=O)C(O)C(C)(C)COP(=O)(O)OP(=O)(O)OCC1OC(n2cnc3c(N)ncnc32)C(O)C1OP(=O)(O)O)C(=O)NCC(N)=O (stereo not drawn) |  |  | 41.3 µM (inactive) | > 100 µM (inactive) | > 100 µM (inactive) | > 100 µM (inactive) | > 100 µM (inactive) | 95.1 µM (inactive) | > 100 µM (inactive)
CCOc1ccc(N2C(=O)C3c4[nH]c5ccccc5c4C4CCC(C(C)(C)C)CC4C3C2=O)cc1 (stereo not drawn) | > 100 µM (inactive) | 90.2 µM (inactive) | > 100 µM (inactive) |  | 77.8 µM (inactive) | > 100 µM (inactive) |  | 50 µM (inactive) | 88.9 µM (inactive)
Oc1ccc2c(c1)CC[N+]1=C2CCC2CCCC21 (stereo not drawn) [QUINDONIUM BROMIDE] |  |  | > 100 µM (inactive) | > 100 µM (inactive) |  | > 100 µM (inactive) |  | > 100 µM (inactive) | > 100 µM (inactive)
O=[N+]([O-])c1cccc(Nc2nc(Cl)nc(Cl)n2)c1 | > 100 µM (inactive) | > 100 µM (inactive) | > 100 µM (inactive) | > 100 µM (inactive) | > 100 µM (inactive) | > 100 µM (inactive) | > 100 µM (inactive) |  | > 100 µM (inactive)
COC(=O)C1(C)C=C(Nc2ccccc2)C(=O)N1c1ccccc1 (stereo not drawn) | > 100 µM (inactive) | > 100 µM (inactive) |  | > 100 µM (inactive) |  | > 100 µM (inactive) | 35.5 µM (inactive) | > 100 µM (inactive) | > 100 µM (inactive)
COc1cc(O)c(C(=O)CC(C)=O)c(OC)c1 | > 100 µM (inactive) | > 100 µM (inactive) | > 100 µM (inactive) |  | > 100 µM (inactive) | > 100 µM (inactive) |  | > 100 µM (inactive) | > 100 µM (inactive)
COC(=O)[C@H]1CC(=O)C=C2CCCC21 (stereo partly drawn) | > 100 µM (inactive) |  | > 100 µM (inactive) | > 100 µM (inactive) |  | > 100 µM (inactive) | > 100 µM (inactive) | > 100 µM (inactive) | > 100 µM (inactive)
CC(=O)N1CCc2[nH]c3ccccc3c2CC1 | > 100 µM (inactive) | > 100 µM (inactive) | > 100 µM (inactive) | > 100 µM (inactive) | > 100 µM (inactive) | > 100 µM (inactive) | > 100 µM (inactive) | > 100 µM (inactive) | > 100 µM (inactive)
